Key:
Assay in all cases: Cell Titer-Glo proliferation assay, 72 h
Assay type in all cases: cell-based
JHH-1 = details: Homo sapiens, JHH1, JHH-1 cells
Protocol: (§1) Two sensitive epithelial cell lines Hep3B (A), JHH-7 (B), one insensitive epithelial cell line JHH-1(C) or one insensitive mesenchymal-like cell line HLF (D) were treated serial dilution of OSI-906 in the presence of Erlotinib for 72 hours, and sensitivity to treatment was measured by proliferation assays.
(§2) Cell lines: Twenty-one HCC cell lines were purchased from either ATCC (HepG2, Hep3B, PLC/PRF/5, SK-Hepl, SNU-182, SNU-387, SNU-398, SNU-423, SNU-449, SNU-475) or Health Science Research Resources Bank (Japan) (HUH-1, HUH-6, HUH-7, HLE, HLF, JHH-1, JHH-2, JHH-4, JHH-5, JHH-6, JHH-7). All the cell lines were maintained in media as described by the vendors. For growth inhibition assays, cells were plated and allowed to proliferate for 24 hours. After 24 hours, cells had reached approximately 15% confluency, at which time serial dilutions of OSI-906 were added and the cells grown for a further 72 hours. Cell viability was assayed using the Cell Titer-Glo reagent (Promega Corp., Madison, Wis.).
(§3) Proliferation Assay. Proliferation was assayed using Cell Titer Glo assays (Promega) and was determined 72 hours following dosing with OSI-906. The basis of the assay is a luminescent quantitation of ATP present in a cell culture plate well. In essence, the greater the number of viable cells in the well, the greater the level of ATP present. The assay utilizes a substrate that binds ATP to produce a luminescent signal, which can be read on a luminometer. Unless otherwise noted, the manufacturer's instructions were followed exactly. Briefly, on Day 1, cells were plated in 120 μl of 10% serum-containing growth media at a density of 4000 cells/well in a white polystyrene 96 well assay plate. On day 2, cells were treated with 15 μl of 10× concentration of the IGF-1R inhibitor (e.g. OSI-906) or DMSO alone for a final well volume of 150 μl. After 72 h incubation with the inhibitor, the cells were assayed. Results were calculated as a fraction of the DMSO controlled cells.

JHH-7 = details: Homo sapiens, JHH7, JHH-7 cells
Protocol: as §1, §2, §3

HLF = details: Homo sapiens, HLF cells
Protocol: as §1, §2, §3

Hep 3B = details: Homo sapiens, Hep3B, Hep 3B cells
Protocol: as §1, §2, §3

Huh-6 = details: Homo sapiens, Huh-6 cells
Protocol: as §3, with “Cell lines: Twenty-one HCC cell lines were purchased from either ATCC (HepG2, Hep3B, PLC/PRF/5, SK-Hepl, SNU-182, SNU-387, SNU-398, SNU-423, SNU-449, SNU-475) or Health Science Research Resources Bank (Japan) (HUH-1, HUH-6, HUH-7, HLE, HLF, JHH-1, JHH-2, JHH-4, JHH-5, JHH-6, JHH-7). All the cell lines were maintained in media as described by the vendors. For growth inhibition assays, cells were plated and allowed to proliferate for 24 hours. After 24 hours, cells had reached approximately 15% confluency, at which time serial dilutions of OSI-906 were added and the cells grown for a further 72 hours. Cell viability was assayed using the Cell Titer-Glo reagent (Promega Corp., Madison, Wis.). Proliferation Assay.” for “Proliferation Assay.”

SNU-398 = details: Homo sapiens, SNU-398 cells
Protocol: as §3, with “Cell lines: Twenty-one HCC cell lines were purchased from either ATCC (HepG2, Hep3B, PLC/PRF/5, SK-Hepl, SNU-182, SNU-387, SNU-398, SNU-423, SNU-449, SNU-475) or Health Science Research Resources Bank (Japan) (HUH-1, HUH-6, HUH-7, HLE, HLF, JHH-1, JHH-2, JHH-4, JHH-5, JHH-6, JHH-7). All the cell lines were maintained in media as described by the vendors. For growth inhibition assays, cells were plated and allowed to proliferate for 24 hours. After 24 hours, cells had reached approximately 15% confluency, at which time serial dilutions of OSI-906 were added and the cells grown for a further 72 hours. Cell viability was assayed using the Cell Titer-Glo reagent (Promega Corp., Madison, Wis.). Proliferation Assay.” for “Proliferation Assay.”

Huh-1 = details: Homo sapiens, Huh-1 cells
Protocol: as §3, with “Cell lines: Twenty-one HCC cell lines were purchased from either ATCC (HepG2, Hep3B, PLC/PRF/5, SK-Hepl, SNU-182, SNU-387, SNU-398, SNU-423, SNU-449, SNU-475) or Health Science Research Resources Bank (Japan) (HUH-1, HUH-6, HUH-7, HLE, HLF, JHH-1, JHH-2, JHH-4, JHH-5, JHH-6, JHH-7). All the cell lines were maintained in media as described by the vendors. For growth inhibition assays, cells were plated and allowed to proliferate for 24 hours. After 24 hours, cells had reached approximately 15% confluency, at which time serial dilutions of OSI-906 were added and the cells grown for a further 72 hours. Cell viability was assayed using the Cell Titer-Glo reagent (Promega Corp., Madison, Wis.). Proliferation Assay.” for “Proliferation Assay.”

SNU-423 = details: Homo sapiens, SNU-423 cells
Protocol: as §3, with “Cell lines: Twenty-one HCC cell lines were purchased from either ATCC (HepG2, Hep3B, PLC/PRF/5, SK-Hepl, SNU-182, SNU-387, SNU-398, SNU-423, SNU-449, SNU-475) or Health Science Research Resources Bank (Japan) (HUH-1, HUH-6, HUH-7, HLE, HLF, JHH-1, JHH-2, JHH-4, JHH-5, JHH-6, JHH-7). All the cell lines were maintained in media as described by the vendors. For growth inhibition assays, cells were plated and allowed to proliferate for 24 hours. After 24 hours, cells had reached approximately 15% confluency, at which time serial dilutions of OSI-906 were added and the cells grown for a further 72 hours. Cell viability was assayed using the Cell Titer-Glo reagent (Promega Corp., Madison, Wis.). Proliferation Assay.” for “Proliferation Assay.”

Hep G2 = details: Homo sapiens, HepG2, Hep G2 cells
Protocol: as §3, with “Cell lines: Twenty-one HCC cell lines were purchased from either ATCC (HepG2, Hep3B, PLC/PRF/5, SK-Hepl, SNU-182, SNU-387, SNU-398, SNU-423, SNU-449, SNU-475) or Health Science Research Resources Bank (Japan) (HUH-1, HUH-6, HUH-7, HLE, HLF, JHH-1, JHH-2, JHH-4, JHH-5, JHH-6, JHH-7). All the cell lines were maintained in media as described by the vendors. For growth inhibition assays, cells were plated and allowed to proliferate for 24 hours. After 24 hours, cells had reached approximately 15% confluency, at which time serial dilutions of OSI-906 were added and the cells grown for a further 72 hours. Cell viability was assayed using the Cell Titer-Glo reagent (Promega Corp., Madison, Wis.). Proliferation Assay.” for “Proliferation Assay.”

JHH-5 = details: Homo sapiens, JHH-5 cells
Protocol: as §3, with “Cell lines: Twenty-one HCC cell lines were purchased from either ATCC (HepG2, Hep3B, PLC/PRF/5, SK-Hepl, SNU-182, SNU-387, SNU-398, SNU-423, SNU-449, SNU-475) or Health Science Research Resources Bank (Japan) (HUH-1, HUH-6, HUH-7, HLE, HLF, JHH-1, JHH-2, JHH-4, JHH-5, JHH-6, JHH-7). All the cell lines were maintained in media as described by the vendors. For growth inhibition assays, cells were plated and allowed to proliferate for 24 hours. After 24 hours, cells had reached approximately 15% confluency, at which time serial dilutions of OSI-906 were added and the cells grown for a further 72 hours. Cell viability was assayed using the Cell Titer-Glo reagent (Promega Corp., Madison, Wis.). Proliferation Assay.” for “Proliferation Assay.”

JHH-4 = details: Homo sapiens, JHH-4 cells
Protocol: as §3, with “Cell lines: Twenty-one HCC cell lines were purchased from either ATCC (HepG2, Hep3B, PLC/PRF/5, SK-Hepl, SNU-182, SNU-387, SNU-398, SNU-423, SNU-449, SNU-475) or Health Science Research Resources Bank (Japan) (HUH-1, HUH-6, HUH-7, HLE, HLF, JHH-1, JHH-2, JHH-4, JHH-5, JHH-6, JHH-7). All the cell lines were maintained in media as described by the vendors. For growth inhibition assays, cells were plated and allowed to proliferate for 24 hours. After 24 hours, cells had reached approximately 15% confluency, at which time serial dilutions of OSI-906 were added and the cells grown for a further 72 hours. Cell viability was assayed using the Cell Titer-Glo reagent (Promega Corp., Madison, Wis.). Proliferation Assay.” for “Proliferation Assay.”

SNU-475 = details: Homo sapiens, SNU-475 cells
Protocol: as §3, with “Cell lines: Twenty-one HCC cell lines were purchased from either ATCC (HepG2, Hep3B, PLC/PRF/5, SK-Hepl, SNU-182, SNU-387, SNU-398, SNU-423, SNU-449, SNU-475) or Health Science Research Resources Bank (Japan) (HUH-1, HUH-6, HUH-7, HLE, HLF, JHH-1, JHH-2, JHH-4, JHH-5, JHH-6, JHH-7). All the cell lines were maintained in media as described by the vendors. For growth inhibition assays, cells were plated and allowed to proliferate for 24 hours. After 24 hours, cells had reached approximately 15% confluency, at which time serial dilutions of OSI-906 were added and the cells grown for a further 72 hours. Cell viability was assayed using the Cell Titer-Glo reagent (Promega Corp., Madison, Wis.). Proliferation Assay.” for “Proliferation Assay.”

SNU-387 = details: Homo sapiens, SNU-387 cells
Protocol: as §3, with “Cell lines: Twenty-one HCC cell lines were purchased from either ATCC (HepG2, Hep3B, PLC/PRF/5, SK-Hepl, SNU-182, SNU-387, SNU-398, SNU-423, SNU-449, SNU-475) or Health Science Research Resources Bank (Japan) (HUH-1, HUH-6, HUH-7, HLE, HLF, JHH-1, JHH-2, JHH-4, JHH-5, JHH-6, JHH-7). All the cell lines were maintained in media as described by the vendors. For growth inhibition assays, cells were plated and allowed to proliferate for 24 hours. After 24 hours, cells had reached approximately 15% confluency, at which time serial dilutions of OSI-906 were added and the cells grown for a further 72 hours. Cell viability was assayed using the Cell Titer-Glo reagent (Promega Corp., Madison, Wis.). Proliferation Assay.” for “Proliferation Assay.”

SNU-182 = details: Homo sapiens, SNU-182 cells
Protocol: as §3, with “Cell lines: Twenty-one HCC cell lines were purchased from either ATCC (HepG2, Hep3B, PLC/PRF/5, SK-Hepl, SNU-182, SNU-387, SNU-398, SNU-423, SNU-449, SNU-475) or Health Science Research Resources Bank (Japan) (HUH-1, HUH-6, HUH-7, HLE, HLF, JHH-1, JHH-2, JHH-4, JHH-5, JHH-6, JHH-7). All the cell lines were maintained in media as described by the vendors. For growth inhibition assays, cells were plated and allowed to proliferate for 24 hours. After 24 hours, cells had reached approximately 15% confluency, at which time serial dilutions of OSI-906 were added and the cells grown for a further 72 hours. Cell viability was assayed using the Cell Titer-Glo reagent (Promega Corp., Madison, Wis.). Proliferation Assay.” for “Proliferation Assay.”

For `C[C@]1(O)C[C@@H](c2nc(-c3ccc4ccc(-c5ccccc5)nc4c3)c3c(N)nccn32)C1` [OSI-906, cis-3-[8-amino-1-(2-phenyl-quinolin-7-yl)-imidazo[1,5-a]pyrazin-3-yl]-1-methyl-cyclobutanol], the inhibition at 5 µM (JHH-1; 5 μM OSI-906, 72 h) was < 40%, the EC50 (JHH-1; 72 h OSI-906) was > 10000 nM and the inhibition at 5 µM (JHH-7; 5 μM OSI-906, 72 h) was 70%. The EC50 (JHH-7; 72 h OSI-906) was 940 nM, the inhibition at 5 µM (HLF; 5 μM OSI-906, 72 h) was < 40% and the EC50 (HLF; 72 h OSI-906) was > 10000 nM. The inhibition at 5 µM (Hep 3B; 5 μM OSI-906, 72 h) was 67%, the EC50 (Hep 3B; 72 h OSI-906) was 350 nM and the inhibition at 5 µM (Huh-6; 5 μM OSI-906, 72 h) was 41%. The EC50 (Huh-6; 72 h OSI-906) was 250 nM, the inhibition at 5 µM (SNU-398; 5 μM OSI-906, 72 h) was < 40% and the EC50 (SNU-398; 72 h OSI-906) was > 10000 nM. The inhibition at 5 µM (Huh-1; 5 μM OSI-906, 72 h) was 74%, the EC50 (Huh-1; 72 h OSI-906) was 180 nM and the inhibition at 5 µM (SNU-423; 5 μM OSI-906, 72 h) was < 40%. The EC50 (SNU-423; 72 h OSI-906) was > 10000 nM, the inhibition at 5 µM (Hep G2; 5 μM OSI-906, 72 h) was 77% and the EC50 (Hep G2; 72 h OSI-906) was 220 nM. The inhibition at 5 µM (JHH-5; 5 μM OSI-906, 72 h) was 80%, the EC50 (JHH-5; 72 h OSI-906) was 190 nM and the inhibition at 5 µM (JHH-4; 5 μM OSI-906, 72 h) was < 40%. The EC50 (JHH-4; 72 h OSI-906) was > 10000 nM, the inhibition at 5 µM (SNU-475; 5 μM OSI-906, 72 h) was < 40% and the EC50 (SNU-475; 72 h OSI-906) was > 10000 nM. The inhibition at 5 µM (SNU-387; 5 μM OSI-906, 72 h) was < 40%, the EC50 (SNU-387; 72 h OSI-906) was > 10000 nM and the inhibition at 5 µM (SNU-182; 5 μM OSI-906, 72 h) was < 40%. For the same compound, the EC50 (SNU-182; 72 h OSI-906) was > 10000 nM.

Reference: patent publication US20120214830A1, “BIOLOGICAL MARKERS PREDICTIVE OF ANTI-CANCER RESPONSE TO INSULIN-LIKE GROWTH FACTOR-1 RECEPTOR KINASE INHIBITORS IN HEPATOCELLULAR CARCINOMA” (OSI Pharmaceuticals, LLC, priority 2011, published 2012)
